Type in all cases: functional
Assay [1] deals with Erythrocyte. The experiment in a line: Inhibition of AAPH-induced hemolysis in human erythrocytes assessed as hemolysis inhibition time at 9.26 uM.
For assay [2], the system named is Erythrocyte. The experiment in a line: Inhibition of AAPH-induced hemolysis in human erythrocytes assessed as hemolysis time at 20.6 uM.
The test system of assay [3] is Erythrocyte. The experiment in a line: Inhibition of AAPH-induced hemolysis in human erythrocytes assessed as hemolysis time at 6.17 uM.
Assay [4] relates to Erythrocyte. The experiment in a line: Inhibition of AAPH-induced hemolysis in human erythrocytes assessed as hemolysis time at 12.3 uM.
In assay [5] the test system is Erythrocyte. Nature of the assay: Inhibition of AAPH-induced hemolysis in human erythrocytes assessed as hemolysis inhibition time at 6.17 uM.
Assay [6] relates to Erythrocyte. Nature of the assay: Inhibition of AAPH-induced hemolysis in human erythrocytes assessed as hemolysis inhibition time at 20.6 uM.
For assay [7], the system named is Erythrocyte. Nature of the assay: Inhibition of AAPH-induced hemolysis in human erythrocytes assessed as hemolysis time at 9.26 uM.
Assay [8] concerns Erythrocyte. Nature of the assay: Inhibition of AAPH-induced hemolysis in human erythrocytes assessed as hemolysis inhibition time at 15.4 uM.
The test system of assay [9] is Erythrocyte. Nature of the assay: Inhibition of AAPH-induced hemolysis in human erythrocytes assessed as hemolysis inhibition time at 12.3 uM.
The test system of assay [10] is Erythrocyte. Nature of the assay: Inhibition of AAPH-induced hemolysis in human erythrocytes assessed as hemolysis time at 15.4 uM.
Assay [11] has as its system Erythrocyte. Nature of the assay: Inhibition of AAPH-induced hemolysis in human erythrocytes assessed as hemolysis time at 15 uM.
Assay [12] relates to Erythrocyte. The experiment in a line: Inhibition of AAPH-induced hemolysis in human erythrocytes assessed as hemolysis inhibition time at 12 uM.
Assay [13] relates to Erythrocyte. The experiment in a line: Inhibition of AAPH-induced hemolysis in human erythrocytes assessed as hemolysis inhibition time at 15 uM.
Assay [14] concerns Erythrocyte. Nature of the assay: Inhibition of AAPH-induced hemolysis in human erythrocytes assessed as hemolysis inhibition time at 6 uM.
Assay [15] concerns Erythrocyte. The experiment in a line: Inhibition of AAPH-induced hemolysis in human erythrocytes assessed as hemolysis time at 6 uM.
Assay [16] concerns Erythrocyte. The experiment in a line: Inhibition of AAPH-induced hemolysis in human erythrocytes assessed as hemolysis inhibition time at 3 uM.
In assay [17] the test system is Erythrocyte. The experiment in a line: Inhibition of AAPH-induced hemolysis in human erythrocytes assessed as hemolysis time at 3 uM.
In assay [18] the test system is Erythrocyte. Nature of the assay: Inhibition of AAPH-induced hemolysis in human erythrocytes assessed as hemolysis time at 9 uM.
Assay [19] concerns Erythrocyte. Nature of the assay: Inhibition of AAPH-induced hemolysis in human erythrocytes assessed as hemolysis time at 12 uM.
The test system of assay [20] is Erythrocyte. Nature of the assay: Inhibition of AAPH-induced hemolysis in human erythrocytes assessed as hemolysis inhibition time at 9 uM.
Assay [21] relates to Erythrocyte. The experiment in a line: Inhibition of AAPH-induced hemolysis in human erythrocytes assessed as hemolysis time at 30.5 uM.
The test system of assay [22] is Erythrocyte. The experiment in a line: Inhibition of AAPH-induced hemolysis in human erythrocytes assessed as hemolysis time at 20.3 uM.
Assay [23] concerns Erythrocyte. Nature of the assay: Inhibition of AAPH-induced hemolysis in human erythrocytes assessed as hemolysis time at 50.8 uM.
Assay [24] relates to Erythrocyte. The experiment in a line: Inhibition of AAPH-induced hemolysis in human erythrocytes assessed as hemolysis inhibition time at 20.3 uM.
The subject of assay [25] is Erythrocyte. Nature of the assay: Inhibition of AAPH-induced hemolysis in human erythrocytes assessed as hemolysis inhibition time at 50.8 uM.
Assay [26] relates to Erythrocyte. The experiment in a line: Inhibition of AAPH-induced hemolysis in human erythrocytes assessed as hemolysis inhibition time at 37.3 uM.
Assay [27] has as its system Erythrocyte. Nature of the assay: Inhibition of AAPH-induced hemolysis in human erythrocytes assessed as hemolysis inhibition time at 30.5 uM.
The test system of assay [28] is Erythrocyte. The experiment in a line: Inhibition of AAPH-induced hemolysis in human erythrocytes assessed as hemolysis time at 61 uM.
Assay [29] relates to Erythrocyte. The experiment in a line: Inhibition of AAPH-induced hemolysis in human erythrocytes assessed as hemolysis time at 37.3 uM.
In assay [30] the test system is Erythrocyte. The experiment in a line: Inhibition of AAPH-induced hemolysis in human erythrocytes assessed as hemolysis inhibition time at 61 uM.
For assay [31], the system named is Erythrocyte. Nature of the assay: Inhibition of AAPH-induced hemolysis in human erythrocytes assessed as hemolysis time at 16.5 uM.
Assay [32] concerns Erythrocyte. Nature of the assay: Inhibition of AAPH-induced hemolysis in human erythrocytes assessed as hemolysis time at 8.26 uM.
The test system of assay [33] is Erythrocyte. Nature of the assay: Inhibition of AAPH-induced hemolysis in human erythrocytes assessed as hemolysis inhibition time at 20.7 uM.
For assay [34], the system named is Erythrocyte. The experiment in a line: Inhibition of AAPH-induced hemolysis in human erythrocytes assessed as hemolysis time at 24.8 uM.
The subject of assay [35] is Erythrocyte. The experiment in a line: Inhibition of AAPH-induced hemolysis in human erythrocytes assessed as hemolysis inhibition time at 24.8 uM.
Assay [36] relates to Erythrocyte. The experiment in a line: Inhibition of AAPH-induced hemolysis in human erythrocytes assessed as hemolysis time at 12.4 uM.
Assay [37] relates to Erythrocyte. The experiment in a line: Inhibition of AAPH-induced hemolysis in human erythrocytes assessed as hemolysis inhibition time at 16.5 uM.
In assay [38] the test system is Erythrocyte. Nature of the assay: Inhibition of AAPH-induced hemolysis in human erythrocytes assessed as hemolysis inhibition time at 8.26 uM.
Assay [39] relates to Erythrocyte. Nature of the assay: Inhibition of AAPH-induced hemolysis in human erythrocytes assessed as hemolysis inhibition time at 12.4 uM.
For assay [40], the system named is Erythrocyte. The experiment in a line: Inhibition of AAPH-induced hemolysis in human erythrocytes assessed as hemolysis time at 20.7 uM.
In assay [41] the test system is Erythrocyte. Nature of the assay: Inhibition of AAPH-induced hemolysis in human erythrocytes assessed as hemolysis inhibition time at 10.8 uM.
In assay [42] the test system is Erythrocyte. Nature of the assay: Inhibition of AAPH-induced hemolysis in human erythrocytes assessed as hemolysis time at 13.9 uM.
Assay [43] has as its system Erythrocyte. Nature of the assay: Inhibition of AAPH-induced hemolysis in human erythrocytes assessed as hemolysis inhibition time at 9.27 uM.
Assay [44] deals with Erythrocyte. Nature of the assay: Inhibition of AAPH-induced hemolysis in human erythrocytes assessed as hemolysis time at 9.27 uM.
The subject of assay [45] is Erythrocyte. The experiment in a line: Inhibition of AAPH-induced hemolysis in human erythrocytes assessed as hemolysis inhibition time at 13.9 uM.
Assay [46] deals with Erythrocyte. The experiment in a line: Inhibition of AAPH-induced hemolysis in human erythrocytes assessed as hemolysis time at 10.8 uM.
For assay [47], the system named is Erythrocyte. Nature of the assay: Inhibition of AAPH-induced hemolysis in human erythrocytes assessed as hemolysis time at 15.5 uM.
The test system of assay [48] is Erythrocyte. Nature of the assay: Inhibition of AAPH-induced hemolysis in human erythrocytes assessed as hemolysis inhibition time at 15.5 uM.

SMILES strings stand for the structures.

`c1ccc2c(c1)[nH]c1ccccc12` [CARBAZOLE]: the Activity came to 101 min in assay [1]; 406 min in assay [2]; 265 min in assay [3]; 327 min in assay [4]; 68 min in assay [5]; 209 min in assay [6]. Besides, the Activity in assay [7] worked out at 298 min; in assay [8], 167 min; in assay [9], 130 min; in [10] it was 364 min.

As to `c1ccc(Nc2ccccc2)cc1` [DIPHENYLAMINE], the Activity is reported as 489 min in assay [11]; 225 min in assay [12]; 256 min in assay [13]; 113 min in assay [14]; 346 min in [15]; 24 min in [16]. Further, the Activity in assay [17] is 257 min; in [18], 400 min; in assay [19], 458 min; in [20], 167 min.

Consider `c1ccc2c(c1)Nc1ccccc1S2` [PHENOTHIAZINE], for which the Activity in assay [21] worked out at 330 min; in assay [22], 275 min; in [23], 408 min; in [24], 64 min; in assay [25] it was 197 min; in assay [26], 157 min. In addition, the Activity in assay [27] is reported as 119 min; in assay [28], 451 min; in [29], 368 min; in [30], 240 min.

Turning to `C1=Cc2ccccc2Nc2ccccc21` [IMINOSTILBENE], the Activity in [31] was 333 min; in assay [32] it was 264 min; in assay [33], 153 min; in assay [34] it was 381 min; in assay [35], 169 min; in assay [36], 297 min. The Activity in assay [37] is on record as 121 min; in assay [38] it was 52 min; in assay [39] it was 85 min; in assay [40] it was 365 min.

For `c1ccc2c(c1)Nc1ccccc1O2` [PHENOXAZINE], the Activity turned out to be 192 min in assay [41]; 461 min in assay [42]; 158 min in assay [43]; 425 min in [36]; 345 min in assay [44]; 238 min in assay [39]. The Activity turned out to be 274 min in assay [45], 379 min in assay [46], 509 min in [47] and 322 min in [48].

Values taken from ChEMBL document CHEMBL1146373, “Free-radical-scavenging effect of carbazole derivatives on AAPH-induced hemolysis of human erythrocytes” (2007).
